Source: paper PMC11277489, “Novel Piperazine Derivatives of Vindoline as Anticancer Agents” (International Journal of Molecular Sciences, 2024)

Assays:
[1] = test system: NCI-H322M; assay: NCI60 one-dose screen (10 μM), Non-small Cell Lung Cancer; type: cell-based; conditions: Homo sapiens, 10 μM, Non-small Cell Lung Cancer, read-out: Growth percent rate
[2] = test system: SK-MEL-5; assay: NCI60 one-dose screen (10 μM), Melanoma; type: cell-based, human; conditions: Homo sapiens; 10 μM; SK-MEL-5, Melanoma; read-out: Growth percent rate
[3] = test system: SNB-75; assay: NCI60 one-dose screen (10 μM), CNS Cancer; type: cell-based, human; conditions: Homo sapiens; 10 μM; SNB-75, CNS Cancer; read-out: Growth percent rate
[4] = test system: COLO 205; assay: NCI60 one-dose screen (10 μM), Colon Cancer; type: cell-based, human; conditions: Homo sapiens; 10 μM; COLO 205, Colon Cancer; read-out: Growth percent rate
[5] = test system: OVCAR-3; assay: NCI60 one-dose screen (10 μM), Ovarian Cancer; type: cell-based; conditions: Homo sapiens; 10 μM; OVCAR-3, Ovarian Cancer; read-out: Growth percent rate
[6] = test system: HCT-116; assay: NCI60 one-dose screen (10 μM), Colon Cancer; type: cell-based; conditions: Homo sapiens; 10 μM; HCT-116, Colon Cancer; read-out: Growth percent rate
[7] = test system: CCRF-CEM; assay: NCI60 one-dose screen (10 μM), Leukemia; type: cell-based; conditions: Homo sapiens, 10 μM, Leukemia, read-out: Growth percent rate
[8] = test system: NCI-H23; assay: NCI60 one-dose screen (10 μM), Non-small Cell Lung Cancer; type: cell-based; conditions: Homo sapiens; 10 μM; NCI-H23, Non-small Cell Lung Cancer; read-out: Growth percent rate
[9] = test system: SW-620; assay: NCI60 one-dose screen (10 μM), Colon Cancer; type: cell-based; conditions: Homo sapiens; 10 μM; SW-620, Colon Cancer; read-out: Growth percent rate
[10] = test system: A498; assay: NCI60 one-dose screen (10 μM), Renal Cancer; type: cell-based; conditions: Homo sapiens; 10 μM; A498, Renal Cancer; read-out: Growth percent rate
[11] = test system: K-562; assay: NCI60 one-dose screen (10 μM), Leukemia; type: cell-based; conditions: Homo sapiens, K562; 10 μM; K-562, Leukemia; read-out: Growth percent rate
[12] = test system: SF-295; assay: NCI60 one-dose screen (10 μM), CNS Cancer; type: cell-based; conditions: Homo sapiens; 10 μM; SF-295, CNS Cancer; read-out: Growth percent rate
[13] = test system: HOP-62; assay: NCI60 one-dose screen (10 μM), Non-small Cell Lung Cancer; type: cell-based; conditions: Homo sapiens; 10 μM; HOP-62, Non-small Cell Lung Cancer; read-out: Growth percent rate
[14] = test system: IGROV1; assay: NCI60 one-dose screen (10 μM), Ovarian Cancer; type: cell-based; conditions: Homo sapiens, IGROV-1; 10 μM; IGROV1, Ovarian Cancer; read-out: Growth percent rate
[15] = test system: KM12; assay: NCI60 one-dose screen (10 μM), Colon Cancer; type: cell-based, human; conditions: Homo sapiens; 10 μM; KM12, Colon Cancer; read-out: Growth percent rate
[16] = test system: HCC-2998; assay: NCI60 one-dose screen (10 μM), Colon Cancer; type: cell-based; conditions: Homo sapiens; 10 μM; HCC-2998, Colon Cancer; read-out: Growth percent rate
[17] = test system: CAKI-1; assay: NCI60 one-dose screen (10 μM), Renal Cancer; type: cell-based; conditions: Homo sapiens; 10 μM; CAKI-1, Renal Cancer; read-out: Growth percent rate
[18] = test system: EKVX; assay: NCI60 one-dose screen (10 μM), Non-small Cell Lung Cancer; type: cell-based; conditions: Homo sapiens, 10 μM, Non-small Cell Lung Cancer, read-out: Growth percent rate
[19] = test system: 786–0; assay: NCI60 one-dose screen (10 μM), Renal Cancer; type: cell-based; conditions: Homo sapiens; 10 μM; 786-0, Renal Cancer; read-out: Growth percent rate
[20] = test system: UACC-257; assay: NCI60 one-dose screen (10 μM), Melanoma; type: cell-based; conditions: Homo sapiens; 10 μM; UACC-257, Melanoma; read-out: Growth percent rate
[21] = test system: HS 578T; assay: NCI60 one-dose screen (10 μM), Breast Cancer; type: cell-based; conditions: Homo sapiens; 10 μM; HS 578T, Breast Cancer; read-out: Growth percent rate
[22] = test system: MOLT-4; assay: NCI60 one-dose screen (10 μM), Leukemia; type: cell-based, human; conditions: Homo sapiens; 10 μM; MOLT-4, Leukemia; read-out: Growth percent rate
[23] = test system: HL-60(TB); assay: NCI60 one-dose screen (10 μM), Leukemia; type: cell-based; conditions: Homo sapiens; 10 μM; HL-60(TB), Leukemia; read-out: Growth percent rate
[24] = test system: SF-539; assay: NCI60 one-dose screen (10 μM), CNS Cancer; type: cell-based, human; conditions: Homo sapiens; 10 μM; SF-539, CNS Cancer; read-out: Growth percent rate
[25] = test system: OVCAR-8; assay: NCI60 one-dose screen (10 μM), Ovarian Cancer; type: cell-based; conditions: Homo sapiens; 10 μM; OVCAR-8, Ovarian Cancer; read-out: Growth percent rate
[26] = test system: SK-MEL-2; assay: NCI60 one-dose screen (10 μM), Melanoma; type: cell-based; conditions: Homo sapiens; 10 μM; SK-MEL-2, Melanoma; read-out: Growth percent rate
[27] = test system: SNB-19; assay: NCI60 one-dose screen (10 μM), CNS Cancer; type: cell-based; conditions: Homo sapiens; 10 μM; SNB-19, CNS Cancer; read-out: Growth percent rate
[28] = test system: ACHN; assay: NCI60 one-dose screen (10 μM), Renal Cancer; type: cell-based; conditions: Homo sapiens, 10 μM, Renal Cancer, read-out: Growth percent rate
[29] = test system: RPMI-8226; assay: NCI60 one-dose screen (10 μM), Leukemia; type: cell-based; conditions: Homo sapiens; 10 μM; RPMI-8226, Leukemia; read-out: Growth percent rate
[30] = test system: MCF7; assay: NCI60 one-dose screen (10 μM), Breast Cancer; type: cell-based; conditions: Homo sapiens; 10 μM; MCF7, Breast Cancer; read-out: Growth percent rate
[31] = test system: HT29; assay: NCI60 one-dose screen (10 μM), Colon Cancer; type: cell-based; conditions: Homo sapiens, HT-29; 10 μM; HT29, Colon Cancer; read-out: Growth percent rate
[32] = test system: SN12C; assay: NCI60 one-dose screen (10 μM), Renal Cancer; type: cell-based; conditions: Homo sapiens, 10 μM, Renal Cancer, read-out: Growth percent rate
[33] = test system: HCT-15; assay: NCI60 one-dose screen (10 μM), Colon Cancer; type: cell-based; conditions: Homo sapiens; 10 μM; HCT-15, Colon Cancer; read-out: Growth percent rate
[34] = test system: NCI-H522; assay: NCI60 one-dose screen (10 μM), Non-small Cell Lung Cancer; type: cell-based; conditions: Homo sapiens; 10 μM; NCI-H522, Non-small Cell Lung Cancer; read-out: Growth percent rate
[35] = test system: TK-10; assay: NCI60 one-dose screen (10 μM), Renal Cancer; type: cell-based; conditions: Homo sapiens; 10 μM; TK-10, Renal Cancer; read-out: Growth percent rate
[36] = test system: NCI-H460; assay: NCI60 one-dose screen (10 μM), Non-small Cell Lung Cancer; type: cell-based; conditions: Homo sapiens; 10 μM; NCI-H460, Non-small Cell Lung Cancer; read-out: Growth percent rate
[37] = test system: U251; assay: NCI60 one-dose screen (10 μM), CNS Cancer; type: cell-based; conditions: Homo sapiens, U-251; 10 μM; U251, CNS Cancer; read-out: Growth percent rate
[38] = test system: M14; assay: NCI60 one-dose screen (10 μM), Melanoma; type: cell-based; conditions: Homo sapiens; 10 μM; M14, Melanoma; read-out: Growth percent rate
[39] = test system: MDA-MB-435; assay: NCI60 one-dose screen (10 μM), Melanoma; type: cell-based; conditions: Homo sapiens; 10 μM; MDA-MB-435, Melanoma; read-out: Growth percent rate
[40] = test system: MALME-3M; assay: NCI60 one-dose screen (10 μM), Melanoma; type: cell-based; conditions: Homo sapiens; 10 μM; MALME-3M, Melanoma; read-out: Growth percent rate
[41] = test system: A549/ATCC; assay: NCI60 one-dose screen (10 μM), Non-small Cell Lung Cancer; type: cell-based; conditions: Homo sapiens; 10 μM; A549/ATCC, Non-small Cell Lung Cancer; read-out: Growth percent rate
[42] = test system: SK-MEL-28; assay: NCI60 one-dose screen (10 μM), Melanoma; type: cell-based; conditions: Homo sapiens; 10 μM; SK-MEL-28, Melanoma; read-out: Growth percent rate

CCC12C=CCN3CCC4(c5cc(NC(=O)CCl)c(OC)cc5N(C)C4C(O)(C(=O)OC)C1OC(C)=O)C32 (stereo not drawn) [Compound 12, 10-chloroacetamidovindoline] showed an activity at 10 µM [1] of 58.9%, an activity at 10 µM [2] of -17.6% and an activity at 10 µM [3] of -8.81%. It also gave an activity at 10 µM [4] of 87.2%, an activity at 10 µM [5] of -14.7% and an activity at 10 µM [6] of 41.2%. For the same molecule, the activity at 10 µM [7] was 12.6%, the activity at 10 µM [8] was -4.42% and the activity at 10 µM [9] was 64.5%. It also gave an activity at 10 µM [10] of 54.6%, an activity at 10 µM [11] of 36.4% and an activity at 10 µM [12] of 52.2%. The activity at 10 µM [13] was -57.6%, the activity at 10 µM [14] was 27.5% and the activity at 10 µM [15] was 41.5%. It also gave an activity at 10 µM [16] of 24.2%, an activity at 10 µM [17] of 43.8% and an activity at 10 µM [18] of 46.6%. It also gave an activity at 10 µM [19] of 21.3%, an activity at 10 µM [20] of -3.69% and an activity at 10 µM [21] of -16.8%. For the same molecule, the activity at 10 µM [22] was -26.9%, the activity at 10 µM [23] was 37.9% and the activity at 10 µM [24] was 4.74%. The activity at 10 µM [25] was 29.6%, the activity at 10 µM [26] was -69.6% and the activity at 10 µM [27] was 23.1%. It also gave an activity at 10 µM [28] of 37.3%, an activity at 10 µM [29] of -24.7% and an activity at 10 µM [30] of 2.74%. It also gave an activity at 10 µM [31] of 54.1%, an activity at 10 µM [32] of 11% and an activity at 10 µM [33] of 50.1%. It also gave an activity at 10 µM [34] of 8.28%, an activity at 10 µM [35] of 24.8% and an activity at 10 µM [36] of 51%. The activity at 10 µM [37] was -47.9%, the activity at 10 µM [38] was 37% and the activity at 10 µM [39] was 39.9%. It also gave an activity at 10 µM [40] of -14.1%, an activity at 10 µM [41] of 64% and an activity at 10 µM [42] of -0.03%.
